Measured values taken from patent US20220229063A1, “FLUORESCENT COMPOUND WITH CYANURIC-HYDROXIDE AND PREPARATION METHOD THEREOF” (Bioacts Corporation, priority 2021, published 2022).

Assay: Comparison of fluorescent values at the same absorption wavelength of compound 2-1 and compound 2-2
Format: physicochemical
Experimental: In order to confirm an increase in fluorescent intensity by introducing triazine substituted with a hydroxyl group shown in the compound 3-3 as a linker, the following comparative experiment was conducted.
The compound 2-1 was dissolved in DMF at a concentration of 10 mg/ml and then 5 μl of the compound 2-1 was added to 5 ml of PBS at room temperature, and 5 μl of the compound 2-2 was added to 5 mL of PBS at the same concentration in the same manner. The absorption was measured by adding 2 mL of two samples by 1 mL of PBS and the fluorescence was measured even after diluting the compounds.
In FIGS. 1 and 2, the numerical values of ½ and ¼ indicate that the initial concentration was diluted.

- increase in fluorescence intensity (compared to compound 2-1, at a concentration representing the same absorption intensity, DMF stock 10 mg/ml diluted in PBS, room temperature): ≥ 162%
SMILES: CC1(CCCCCC(=O)NCCCNc2nc(O)nc(NCCCCCC(=O)ON3C(=O)CCC3=O)n2)C(/C=C/C=C/C=C2/N(CCCS(=O)(=O)O)c3ccc(S(=O)(=O)O)cc3C2(C)C)=[N+](CCCS(=O)(=O)O)c2ccc(S(=O)(=O)[O-])cc21 (centres unmarked) [Compound 2-2]
- fluorescence intensity as compared to the compound 2-1 (single dye form, in PBS, initial concentration and 1/2, 1/4 dilutions): the higher the concentration, the higher the fluorescence intensity
